Where “and” joins values, the source holds several entries; their conditions need not be identical. Equal entries are not always repeated. Where two headings read alike, the source gives them in different places.
What was measured:
HEL cells = experiment: Cytotoxicity, cell morphology; type: cell-based, human; details: exp. 1 and exp. 2
[1] = system: human cervix carcinoma HeLa cells; experiment: Inhibition of proliferation of human cervix carcinoma HeLa cells; type: cell-based; details: read-out: IC50 HeLa
[2] = Cell viability of MDCK cells, formazan-based MTS assay; design: species or system canine; details: dog, MDCK cells
[3] = Cell viability of CrFK cells, formazan-based MTS assay; design: species or system feline; details: cat, CrFK cells
HSV and Vaccinia viruses = experiment: microbe, parasite or virus in culture; type: cell-based, herpes simplex virus; vaccinia virus; details: Orthopoxvirus vaccinia, read-out: EC50 against HSV and Vaccinia viruses
[4] = system: three strains of herpes simplex virus; type: cell-based; details: HEL, read-out: EC50 against three strains of herpes simplex virus
Vaccinia virus = experiment: microbe, parasite or virus in culture; type: cell-based; details: for EC50: Orthopoxvirus vaccinia, HEL, read-out: EC50 Vaccinia virus
human lymphocyte CEM = experiment: Inhibition of proliferation of human T-lymphocyte CEM cells; type: cell-based; details: for cytostatic activity against CEM relative to 5-fluorouracil: fold more active than 5-fluorouracil; for IC50: read-out: IC50 CEM
[5] = system: L1210, CEM and HeLa cell lines; experiment: Cytostatic activity on L1210, CEM and HeLa cell lines; type: cell-based, murine; human; details: fold more cytostatic than cis-9d / cis-9f
cytomegalovirus = experiment: Antiviral activity against cytomegalovirus in HEL cells; type: cell-based, human cytomegalovirus (HCMV); details: read-out: EC50 toward cytomegalovirus, strain not specified
MDCK cells = experiment: Cell viability of MDCK cells, formazan-based MTS assay; design: species or system canine; details: read-out: CC50 MDCK; cell viability, colorimetric formazan-based MTS assay
CrFK cells = experiment: Cell viability of CrFK cells, formazan-based MTS assay; design: species or system feline; details: read-out: CC50 CrFK; cell viability, colorimetric formazan-based MTS assay
murine leukemia L1210 = experiment: Inhibition of proliferation of murine leukemia L1210 cells; type: cell-based; details: read-out: IC50 L1210; inhibit tumor cell proliferation by 50%
Punta Toro virus = experiment: microbe, parasite or virus in culture; type: cell-based; details: Vero, read-out: EC50 Punta Toro virus
Coxsackie virus B4 = type: cell-based; details: Vero cell cultures; DS-10.000 in μg/ml
[6] = Table 3 (cytomegalovirus assays)
[7] = inhibit tumor cell proliferation by 50%

## CCCN1C(=O)c2cccc3cc(NC(=O)[C@H]4C[C@@H](P(=O)(OCC)OCC)N(C)O4)cc(c23)C1=O (racemic) [cis-9a, Diethyl cis-5-(N-propylnaphthalimide-3-ylcarbamoyl)-2-methylisoxazolidin-3-yl-3-phosphonate]
HEL cells; [6]
  Cytotoxicity Cell morphology MCC: >100 μM
HEL cells; Table 4 (VZV assays)
  Cytotoxicity Cell morphology MCC: >100 μM

## CCCCN1C(=O)c2cccc3cc(NC(=O)[C@H]4C[C@@H](P(=O)(OCC)OCC)N(C)O4)cc(c23)C1=O (racemic) [cis-9b, Diethyl cis-5-(N-butylnaphthalimide-3-ylcarbamoyl)-2-methylisoxazolidin-3-yl-3-phosphonate]
HEL cells; [6]
  Cytotoxicity Cell morphology MCC: 100 μM
HEL cells; Table 4 (VZV assays)
  Cytotoxicity Cell morphology MCC: >100 μM
[1]; Homo sapiens, HeLa
  IC50: 25 ± 3 µM
[2]
  CC50: > 100 µM
[3]
  CC50: > 100 µM

## CCOP(=O)(OCC)[C@@H]1C[C@H](C(=O)Nc2cc3c4c(cccc4c2)C(=O)N(CC(C)C)C3=O)ON1C (racemic) [cis-9c, Diethyl cis-5-(N-isobutylnaphthalimide-3-ylcarbamoyl)-2-methylisoxazolidin-3-yl-3-phosphonate]
HEL cells; [6]
  Cytotoxicity Cell morphology MCC: >100 μM
HEL cells; Table 4 (VZV assays)
  Cytotoxicity Cell morphology MCC: >100 μM

## CCOP(=O)(OCC)[C@@H]1C[C@H](C(=O)Nc2cc3c4c(cccc4c2)C(=O)N(CCN(C)C)C3=O)ON1C (racemic) [cis-9d, Diethyl cis-5-[N-(2-dimethylamino)ethylnaphthalimide-3-ylcarbamoyl]-2-methylisoxazolidin-3-yl-3-phosphonate]
HEL cells; [6]
  Cytotoxicity Cell morphology MCC: >100 μM
HEL cells; Table 4 (VZV assays)
  Cytotoxicity Cell morphology MCC: 100 μM
HSV and Vaccinia viruses
  EC50: 45 to 58 µM
[4]
  EC50: 45 to 100 µM

## CCOP(=O)(OCC)[C@@H]1C[C@H](C(=O)Nc2cc3c4c(cccc4c2)C(=O)N(CCN(CC)CC)C3=O)ON1C (racemic) [cis-9e, Diethyl cis-5-[N-(2-diethylamino)ethylnaphthalimide-3-ylcarbamoyl]-2-methylisoxazolidin-3-yl-3-phosphonate]
[2]
  CC50: > 100 µM

## CCOP(=O)(OCC)[C@@H]1C[C@H](C(=O)Nc2cc3c4c(cccc4c2)C(=O)N(CCN2CCCC2)C3=O)ON1C (racemic) [cis-9f, Diethyl cis-5-[N-(2-pirolidyn-1-yl)ethylnaphthalimide-3-ylcarbamoyl]-2-methylisoxazolidin-3-yl-3-phosphonate]
Vaccinia virus
  EC50: 45 to 100 µM
HEL cells; [6]
  Cytotoxicity Cell morphology MCC: >100 μM
HEL cells; Table 4 (VZV assays)
  Cytotoxicity Cell morphology MCC: 100 μM and >100 μM

## CCCN1C(=O)c2cccc3cc(NC(=O)[C@@H]4C[C@@H](P(=O)(OCC)OCC)N(C)O4)cc(c23)C1=O (racemic) [trans-9a, Diethyl trans-5-(N-propylnaphtalimide-3-ylcarbamoyl)-2-methylisoxazolidin-3-yl-3-phosphonate]
HEL cells; [6]
  Cytotoxicity Cell morphology MCC: >100 μM
HEL cells; Table 4 (VZV assays)
  Cytotoxicity Cell morphology MCC: >100 μM
[3]
  CC50: > 100 µM

## CCCCN1C(=O)c2cccc3cc(NC(=O)[C@@H]4C[C@@H](P(=O)(OCC)OCC)N(C)O4)cc(c23)C1=O (racemic) [trans-9b, Diethyl trans-5-(N-butylnaphthalimide-3-ylcarbamoyl)-2-methylisoxazolidin-3-yl-3-phosphonate]
HEL cells; [6]
  Cytotoxicity Cell morphology MCC: 100 μM
HEL cells; Table 4 (VZV assays)
  Cytotoxicity Cell morphology MCC: >100 μM

## CCOP(=O)(OCC)[C@@H]1C[C@@H](C(=O)Nc2cc3c4c(cccc4c2)C(=O)N(CCN(C)C)C3=O)ON1C (racemic) [trans-9d, Diethyl trans-5-[N-(2-dimethylamino)ethylnaphthalimide-3-ylcarbamoyl]-2-methylisoxazolidin-3-yl-3-phosphonate]
HEL cells; [6]
  Cytotoxicity Cell morphology MCC: 100 μM
HEL cells; Table 4 (VZV assays)
  Cytotoxicity Cell morphology MCC: >100 μM
HSV and Vaccinia viruses
  EC50: 45 to 58 µM
Human lymphocyte CEM
  cytostatic activity against CEM relative to 5-fluorouracil: five-fold
[5]
  cytostatic activity of trans-isomer relative to corresponding cis-isomer: two-fold
[4]
  EC50: 45 to 100 µM

## CCOP(=O)(OCC)[C@@H]1C[C@@H](C(=O)Nc2cc3c4c(cccc4c2)C(=O)N(CCN(CC)CC)C3=O)ON1C (racemic) [trans-9e, Diethyl trans-5-[N-(2-diethylamino)ethylnaphthalimide-3-ylcarbamoyl]-2-methylisoxazolidin-3-yl-3-phosphonate]
[3]
  CC50: > 100 µM

## CCOP(=O)(OCC)[C@@H]1C[C@@H](C(=O)Nc2cc3c4c(cccc4c2)C(=O)N(CCN2CCCC2)C3=O)ON1C (racemic) [trans-9f, Diethyl trans-5-[N-(2-pirolidyn-1-yl)ethylnaphthalimide-3-ylcarbamoyl]-2-methylisoxazolidin-3-yl-3-phosphonate]
HEL cells; [6]
  Cytotoxicity Cell morphology MCC: 100 μM
HEL cells; Table 4 (VZV assays)
  Cytotoxicity Cell morphology MCC: 100 μM
HSV and Vaccinia viruses
  EC50: 45 to 58 µM
cytomegalovirus
  EC50: 8.9 to 20 µM
Human lymphocyte CEM
  cytostatic activity against CEM relative to 5-fluorouracil: five-fold
[5]
  cytostatic activity of trans-isomer relative to corresponding cis-isomer: two-fold
[4]
  EC50: 45 to 100 µM

## CCOP(=O)(OCC)[C@H]1C[C@H](CN2C(=O)c3cccc4cccc(c34)C2=O)ON1C (relative stereo) [trans-10a/cis-10a (93:7), Diethyl trans-5-(1,3-dioxo-2,3-dihydro-1H-benzo[de]izochinolin-2-ylmethyl)-2-methylisoxazolidin-3-yl-3-phosphonate]
[1]; [7]
  IC50: 77 ± 20 µM
MDCK cells
  CC50: > 100 µM
CrFK cells
  CC50: > 100 µM
Human lymphocyte CEM; [7]
  IC50: 111 ± 14 µM
Murine leukemia L1210
  IC50: 180 ± 47 µM

## CCOP(=O)(OCC)[C@H]1C[C@H](CN2C(=O)c3cccc4cc([N+](=O)[O-])cc(c34)C2=O)ON1C (relative stereo) [trans-10b/cis-10b (94:6), Diethyl trans-5-(5-nitro-1,3-dioxo-2,3-dihydro-1H-benzo[de]izochinolin-2-ylmethyl)-2-methylisoxazolidin-3-yl-3-phosphonate]
[1]; [7]
  IC50: 20 ± 3 µM
MDCK cells
  CC50: > 100 µM
CrFK cells
  CC50: > 100 µM
Human lymphocyte CEM; [7]
  IC50: 51 ± 6 µM
Murine leukemia L1210
  IC50: 34 ± 6 µM

## CCOP(=O)(OCC)[C@H]1C[C@H](CN2C(=O)c3cccc4cc(N)cc(c34)C2=O)ON1C (relative stereo) [trans-10c/cis-10c (93:7), Diethyl trans-5-(5-amino-1,3-dioxo-2,3-dihydro-1H-benzo[de]izochinolin-2-ylmethyl)-2-methylisoxazolidin-3-yl-3-phosphonate]
[1]; [7]
  IC50: 101 ± 58 µM
MDCK cells
  CC50: > 100 µM
CrFK cells
  CC50: > 100 µM
Human lymphocyte CEM; [7]
  IC50: 99 ± 2 µM
Murine leukemia L1210
  IC50: 95 ± 42 µM

## CCOP(=O)(OCC)[C@H]1C[C@H](CN2C(=O)c3cccc4cc(NC(C)=O)cc(c34)C2=O)ON1C (relative stereo) [trans-10d/cis-10d (93:7), Diethyl trans-5-(5-acetamido-1,3-dioxo-2,3-dihydro-1H-benzo[de]izochinolin-2-ylmethyl)-2-methylisoxazolidin-3-yl-3-phosphonate]
[1]; [7]
  IC50: 111 ± 3 µM
MDCK cells
  CC50: > 100 µM
CrFK cells
  CC50: > 100 µM
Human lymphocyte CEM; [7]
  IC50: 125 ± 4 µM
Murine leukemia L1210
  IC50: 136 ± 14 µM

## O=c1[nH]cc(F)c(=O)[nH]1 [5-Fluorouracil, reference compound]
[1]; Homo sapiens, HeLa
  IC50: 0.54 ± 0.12 µM
Human lymphocyte CEM; Homo sapiens, Lymphocyte
  IC50: 18 ± 5 µM

## Nc1nc2c(ncn2COCCO)c(=O)[nH]1 [Acyclovir, acyclovir]
Vaccinia virus
  activity against vaccinia virus, in words: inactive

## O=c1[nH]c(=O)n([C@H]2C[C@H](O)[C@@H](CO)O2)cc1/C=C/Br [Brivudin, brivudin, reference compound]
Vaccinia virus
  EC50: 17 to 22 µM
HEL cells; Table 4 (VZV assays)
  Cytotoxicity Cell morphology MCC: >300 μM

## Nc1ccn(C[C@@H](CO)OCP(=O)(O)O)c(=O)n1.O.O [Cidofovir, cidofovir, reference compound]
HEL cells; [6]
  Cytotoxicity Cell morphology MCC: >350 μM

## Nc1nc2c(ncn2COC(CO)CO)c(=O)[nH]1 [Ganciclovir, ganciclovir, reference compound]
Vaccinia virus
  activity against vaccinia virus, in words: inactive
HEL cells; [6]
  Cytotoxicity Cell morphology MCC: >350 μM

## NC(=O)c1ncn([C@@H]2O[C@H](CO)[C@@H](O)[C@H]2O)n1 [Ribavirin, ribavirin]
Punta Toro virus
  EC50: 250 µM

## CCOP(=O)(OCC)[C@@H]1C[C@@H](C(=O)Nc2cc3c4c(cccc4c2)C(=O)N(CC(C)C)C3=O)ON1C [trans-9c, Diethyl trans-5-(N-isobutylnaphthalimide-3-ylcarbamoyl)-2-methylisoxazolidin-3-yl-3-phosphonate]
HEL cells; [6]
  Cytotoxicity Cell morphology MCC: >100 μM
HEL cells; Table 4 (VZV assays)
  Cytotoxicity Cell morphology MCC: >100 μM
[3]
  CC50: > 100 µM

## dextran sulfate [DS-10.000]
Coxsackie virus B4
  EC50 Coxsackie virus B4: >100 µg/mL

Reference: article PMC7126999 (Bioorganic & Medicinal Chemistry, 2015)
